Data published in the supplement of paper PMC11451515.

Tested on: NOMO1
Test: cell viability relative to DMSO control; higher = less cytotoxic
Conditions: 48 h
Method in brief: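 Three leukemia lines were tested: NOMO1 and SEM at 500 cells/well and P12-Ichikawa at 1000 cells/well. Each was adapted for at least four passages in each medium and seeded in 5 μl in 1536-well plates, and library compounds in DMSO were pin-dosed from 47 μM to 0.79 nM in 11 threefold steps. After 48 h at 37°C, CellTiter-Glo One luminescence was read. Viability is a percentage relative to DMSO wells on each plate, with cell-free wells as background.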

[1] = RPMI 5 mM glucose + 10% FBS, 0.000781 µM
[2] = RPMI 5 mM glucose + 10% FBS, 0.00234 µM
[3] = RPMI 5 mM glucose + 10% FBS, 0.00702 µM
[4] = RPMI 5 mM glucose + 10% FBS, 0.0211 µM
[5] = RPMI 5 mM glucose + 10% FBS, 0.0632 µM
[6] = RPMI 5 mM glucose + 10% FBS, 0.19 µM
[7] = RPMI 5 mM glucose + 10% FBS, 0.569 µM
[8] = RPMI 5 mM glucose + 10% FBS, 1.71 µM
[9] = RPMI 5 mM glucose + 10% FBS, 5.12 µM
[10] = RPMI 5 mM glucose + 10% FBS, 15.4 µM
[11] = RPMI 5 mM glucose + 10% FBS, 46.1 µM
[12] = RPMI 5 mM glucose + 10% dialyzed FBS, 0.000781 µM
[13] = RPMI 5 mM glucose + 10% dialyzed FBS, 0.00234 µM
[14] = RPMI 5 mM glucose + 10% dialyzed FBS, 0.00702 µM
[15] = RPMI 5 mM glucose + 10% dialyzed FBS, 0.0211 µM
[16] = RPMI 5 mM glucose + 10% dialyzed FBS, 0.0632 µM
[17] = RPMI 5 mM glucose + 10% dialyzed FBS, 0.19 µM
[18] = RPMI 5 mM glucose + 10% dialyzed FBS, 0.569 µM
[19] = RPMI 5 mM glucose + 10% dialyzed FBS, 1.71 µM
[20] = RPMI 5 mM glucose + 10% dialyzed FBS, 5.12 µM
[21] = RPMI 5 mM glucose + 10% dialyzed FBS, 15.4 µM
[22] = RPMI 5 mM glucose + 10% dialyzed FBS, 46.1 µM

| SMILES | cell viability [1] | cell viability [2] | cell viability [3] | cell viability [4] | cell viability [5] | cell viability [6] | cell viability [7] | cell viability [8] | cell viability [9] | cell viability [10] | cell viability [11] | cell viability [12] | cell viability [13] | cell viability [14] | cell viability [15] | cell viability [16] | cell viability [17] | cell viability [18] | cell viability [19] | cell viability [20] | cell viability [21] | cell viability [22] |
| --- | --- | --- | --- | --- | --- | --- | --- | --- | --- | --- | --- | --- | --- | --- | --- | --- | --- | --- | --- | --- | --- | --- |
| CC[C@@]1(O)C(=O)OCC/2=C1/C=C3\N(CC4=CC5=CC(=CC=C5N=C34)O)C2=O | 116% | 123% | 133% | 107% | 113% | 33.3% | 23.8% | 22.6% | 18.6% | 22.8% | 13.4% | 111% | 124% | 117% | 117% | 121% | 40.4% | 23.8% | 25.8% | 24.5% | 26.4% | 9.6% |
| CC(C)c1cnn2c(NCc3ccccc3)cc(NCCCCCCN)nc12 | 115% | 107% | 117% | 121% | 109% | 122% | 112% | 114% | 116% | 106% | 101% | 115% | 116% | 104% | 125% | 119% | 118% | 114% | 107% | 110% | 101% | 110% |
| CNCc1ccc(-c2[nH]c3cc(F)cc4c3c2CCNC4=O)cc1 | 111% | 117% | 126% | 147% | 133% | 127% | 128% | 130% | 120% | 132% | 125% | 103% | 120% | 131% | 155% | 139% | 139% | 125% | 136% | 151% | 145% | 141% |
| CN[C@@H]1Cc2cccc3[nH]c(=O)n(c23)C1 | 112% | 113% | 118% | 110% | 107% | 105% | 108% | 106% | 105% | 102% | 103% | – | – | – | – | – | – | – | – | – | – | – |
| C[S+](=O)([O-])c1cccc(CNc2nc(Nc3ccc4c(c3)CCC(=O)N4)ncc2C(F)(F)F)c1 | 99.6% | 113% | 116% | 115% | 108% | 114% | 113% | 100% | 93.3% | 91.6% | 53.9% | 107% | 109% | 114% | 129% | 99.9% | 115% | 105% | 111% | 108% | 86.1% | 58.9% |
| Nc1cc(C(F)(F)F)c(-c2cc(N3CCOCC3)nc(N3CCOCC3)n2)cn1 | 115% | 127% | 118% | 133% | 130% | 120% | 98.4% | 74.5% | 14.8% | 6.77% | 7.91% | – | – | – | – | – | – | – | – | – | – | – |
| C[S+](=O)([O-])c1ccc(C(=O)Nc2ccc(Cl)c(-c3ccccn3)c2)c(Cl)c1 | – | – | – | – | – | – | – | – | – | – | – | 119% | 110% | 138% | 143% | 130% | 136% | 139% | 144% | 144% | 135% | 128% |
